This note sets out measurements from ChEMBL document CHEMBL1147725, “Identification and biological characterization of 6-aryl-7-isopropylquinazolinones as novel TRPV1 antagonists that are effective in models of chronic pain” (J Med Chem, 2006).

For this assay, the target named is Transient receptor potential cation channel subfamily V member 1 (Homo sapiens, UniProt Q8NER1). Briefly: Inhibition of calcium influx evoked by capsaicin in human TRPV1 expressing cells by fluorescence assay. In kind it is functional.
Sequence of Transient receptor potential cation channel subfamily V member 1 (Q8NER1 whole entry): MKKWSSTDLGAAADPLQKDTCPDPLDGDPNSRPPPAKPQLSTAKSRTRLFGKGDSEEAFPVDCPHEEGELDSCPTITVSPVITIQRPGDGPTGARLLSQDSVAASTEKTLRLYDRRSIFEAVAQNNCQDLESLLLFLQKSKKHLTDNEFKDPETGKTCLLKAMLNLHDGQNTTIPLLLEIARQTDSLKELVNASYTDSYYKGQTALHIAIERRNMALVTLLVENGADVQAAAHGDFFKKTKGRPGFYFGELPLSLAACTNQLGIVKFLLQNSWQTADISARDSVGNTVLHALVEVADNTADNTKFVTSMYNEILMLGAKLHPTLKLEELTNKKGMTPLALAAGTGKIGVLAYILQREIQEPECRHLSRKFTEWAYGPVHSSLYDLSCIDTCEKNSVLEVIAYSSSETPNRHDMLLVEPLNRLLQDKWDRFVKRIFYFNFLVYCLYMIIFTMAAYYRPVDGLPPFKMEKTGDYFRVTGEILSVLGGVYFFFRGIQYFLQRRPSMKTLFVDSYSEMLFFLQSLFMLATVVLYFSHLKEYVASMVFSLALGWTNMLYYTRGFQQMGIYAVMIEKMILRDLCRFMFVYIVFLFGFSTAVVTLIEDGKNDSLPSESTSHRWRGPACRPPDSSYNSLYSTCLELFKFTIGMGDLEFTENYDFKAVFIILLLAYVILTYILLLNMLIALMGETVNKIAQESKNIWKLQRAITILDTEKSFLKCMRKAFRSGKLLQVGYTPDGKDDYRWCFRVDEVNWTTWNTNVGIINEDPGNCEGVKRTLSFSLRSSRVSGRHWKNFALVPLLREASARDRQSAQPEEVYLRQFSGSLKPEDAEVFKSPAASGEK

The IC50 is the concentration at which inhibition is half-maximal. Regarding `CC(C)c1cc2nc(N)[nH]c(=O)c2cc1-c1ccc(Cl)cc1`, the IC50 was 133 nM.

Turning to `CCCOc1cc(-c2cc3c(=O)[nH]c(C)nc3cc2C(C)C)ccc1Cl`, the 50% inhibitory concentration (IC50) was found to be 40 nM.

In the case of `CCOc1cc(-c2cc3c(=O)[nH]c(C)nc3cc2C(C)C)ccc1OC`, the IC50 is 286 nM.
